Experimental findings from US20200017823A1, “HYDROGEL COMPOSITIONS FOR USE IN NEURAL CELL EXPANSION AND DIFFERENTIATION” (Wisconsin Alumni Research Foundation, priority 2018, published 2020) are described below.

Like-named read-outs stand apart in the source and are kept apart here.

Series [1] has as its system iCell Neurons. The series can be described thus: High-content imaging with skeleton network analysis: neurite branches versus cell viability. Here is the method: All data points are mean±SEM. FIG. 14A: Dexamethasone. FIG. 14B: Colchicine.
Commercially available human iPSC-derived neurons (iCell Neurons) and their supporting media were purchased from Cellular Dynamics International (CDI, Madison, Wis.). Previously characterized iCell Neurons represent a mixture of post-mitotic GABAergic and glutamatergic neurons with >95% purity. The cells were received, frozen, thawed, and plated following a protocol recommended by CDI. Briefly, cells were plated on poly-L-lysine pre-coated 384 well plates (Greiner Bio-One) with PEG-NB hydrogels, 3.3 μg/ml laminin, or 60-120 μg/ml […]®.

Series [2] concerns iCell Neurons. The series can be described thus: Synthetic hydrogel-based network formation/inhibition assay (total network area). Format: cell-based, human. The note with it: PLL/Laminin and MATRIGEL screening systems. From the text: Total network area was quantified by thresholding neurite processes and cell bodies stained with immunofluorescent tags for βIII-tubulin and MAP2. The resulting data was compared using the Z′ statistic to assess the accuracy of the synthetic hydrogel, PLL/Laminin, and MATRIGEL® screening systems in distinguishing neuronal networks disrupted by the known microtubule inhibitor Colchicine from non-inhibited networks.

As for `NC(=O)N1c2ccccc2C=Cc2ccccc21` [Carbamazepine], in the series on iCell Neurons [1], the cell viability entry is “reduced viability” and the “neurite branches / neurite growth” value was “apparent inhibition”. For the molecule `COc1cc2c(c(OC)c1OC)-c1ccc(OC)c(=O)cc1[C@@H](NC(C)=O)CC2` [Colchicine], the “neuronal network (total network area, βIII-tubulin and MAP2 stain)” value with iCell Neurons [2] is given as “disrupted”. Further, the “neurite branches / neurite growth” value with iCell Neurons [1] (synthetic substrate, treated after 120-hour growth, exposed 120 hours, media replenished daily, compared to cell viability) is recorded as “significant reductions”.

Turning to `C[C@@H]1C[C@H]2[C@@H]3CCC4=CC(=O)C=C[C@]4(C)[C@@]3(F)[C@@H](O)C[C@]2(C)[C@@]1(O)C(=O)CO` [Dexamethasone], the “neurite branches / neurite growth” value in the series on iCell Neurons [1] is given as “significant reductions”.
